Consider three compounds from paper PMC6268140, “Absorption and Interaction of the Main Constituents from the Traditional Chinese Drug Pair Shaoyao-Gancao via a Caco-2 Cell Monolayer Model” (Molecules, 2012).

For one series, the system named is Caco-2 cell monolayers. As to the kind of experiment: Transport across Caco-2 cell monolayers (A-B and B-A directions). The conditions noted are these: mixture of Shaoyao-Gancao extract vs. Gancao extract; 22 μM. (Caco-2 cells form a polarised layer with tight junctions and transporters.)
Test in series [1]: as above
Protocol: Cells were cultured in a humidified atmosphere of 5% CO2 and 95% air at 37 °C. The Dulbecco’s modified Eagle’s medium was supplemented with 10% (v/v) fetal bovine serum, 1% nonessential amino acids, 100 U/mL penicillin, and 100 µg/mL streptomycin. When the cell culture reached 80% confluence, it was rinsed with phosphate-buffered saline and split using trypsin. For transport experiments, the cells were seeded on 3 μm porous polycarbonate cell culture inserts from Nunc, which has a surface area of 4.2 cm^2 at a density of 2,500,000 cells/cm^2. The culture media was replaced every other day. The monolayers were ready for experiments from 19 to 22 days after seeding. Well-developed Caco-2 cell monolayers with transepithelial electrical resistance (TEER) values greater than 400 Ω × cm^2 were used for the experiment.
Paeoniflorin, glycyrrhizic acid, and liquiritin were dissolved in dimethyl sulfoxide (DMSO)-ethanol (v/v = 1/1) to prepare the stock solution (10 mM) for each single compound. The above-mentioned solutions were further diluted with Hank’s balanced salt solution (HBSS, pH = 7.4) to obtain a series of working standard solutions, and the final concentrations of paeoniflorin, glycyrrhizic acid, or liquiritin in the transport samples were 50 µM, 20 µM, or 50 µM, respectively. Moreover, the final concentrations of the organic solvent of different samples were controlled below 0.5% to ensure the safety to the cells.
Dry Shaoyao (100 g) or Gancao (100 g) herb materials were extracted twice with boiling water for 1 h each time, and the solutions were filtered through gauze. Then, the filtrates were merged and concentrated to 100 mL as the Shaoyao extract (1 g/mL) containing paeoniflorin (22.41 mg/mL) or Gancao extract (1 g/mL) containing glycyrrhizic acid (16.35 mg/mL) and liquiritin (22.38 mg/mL). Subsequently, the single extract or mixed extract was dissolved in HBSS (pH = 7.4) to obtain a series of working standard solutions, and the final concentrations of paeoniflorin, glycyrrhizic acid, or liquiritin in the transport samples were 50 µM, 22 µM, or 54 µM, respectively. In addition, the ratio of Shaoyao and Gancao in the mixed extract was 1:1. Meanwhile, testosterone (internal standard) was dissolved in acetonitrile with acetic acid (v/v = 94/6) to 100 µM. In addition, verapamil was dissolved in water to 5 mM when it was used.
The cell monolayers were washed three times with 37 °C HBSS (pH 7.4). The monolayers were incubated with the buffer for 1 h, and the incubation medium was then aspirated. Afterwards, a single component or extract solution was loaded on the apical or basolateral side. When the transport inhibitor (verapamil) was used, it was loaded only at the donor side. The amounts of transported drugs in the receiver media were determined by ultra-performance liquid chromatography (UPLC). In the test for each solution, four donor samples (400 μL) and four receiver samples (400 μL) were taken at time intervals of 1, 2, 3, and 4 h, followed by an immediate replacement with fresh donor solution (400 μL) to the donor side or fresh buffer (400 μL) to the receiver side.
To each transport sample (400 μL), 100 μL of acetonitrile containing 100 μM of testosterone was added as an internal standard and a preservative. The resulting mixture was vortexed for 30 s and then centrifuged at 15,000 rpm for 15 min, and the supernatant obtained was analyzed by UPLC.
UPLC was used to determine the concentration of the compounds in the transport samples.
Particulars: human; for Papp A→B at 4 h: Caco-2, pH 7.4; for efflux ratio at 4 h: Caco-2, pH 7.4, Efflux ratio PBA/PAB; for Papp at 4 h: mean ± SD, n = 3.

The next series deals with P-glycoprotein (P-gp) (Homo sapiens, UniProt P08183). The conditions noted are these: Caco-2, 4 h, 50 µM, pH 7.4. From the text:
To determine whether P-gp is involved in the transport of these compounds, their transports were studied in the presence of verapamil, a known inhibitor for P-gp.
All data were presented as means ± SD. […] Results were considered significant at p < 0.05.

The mark [2] stands for this setting: single component solution, paeoniflorin 50 μM, glycyrrhizic acid 20 μM, liquiritin 50 μM.
Setting [3] is: Caco-2, pH 7.4, Papp PAB, in the mixture of Shaoyao-Gancao extract (1:1), paeoniflorin 50 μM, glycyrrhizic acid 22 μM, liquiritin 54 μM.
The mark [4] stands for this setting: Caco-2, pH 7.4, Papp PAB, paeoniflorin in Shaoyao extract (50 μM), glycyrrhizic acid (22 μM) and liquiritin (54 μM) in Gancao extract.
The mark [5] stands for this setting: Caco-2, pH 7.4, Papp PBA (secretary permeability), single component solution, paeoniflorin 50 μM, glycyrrhizic acid 20 μM, liquiritin 50 μM, HBSS pH 7.4.
The mark [6] stands for this setting: Caco-2, pH 7.4, Papp PBA, in the mixture of Shaoyao-Gancao extract (1:1), paeoniflorin 50 μM, glycyrrhizic acid 22 μM, liquiritin 54 μM.
The mark [7] stands for this setting: Caco-2, pH 7.4, Papp PBA, paeoniflorin in Shaoyao extract (50 μM), glycyrrhizic acid (22 μM) and liquiritin (54 μM) in Gancao extract.

Sequence of P-glycoprotein (P-gp) (P08183 whole entry): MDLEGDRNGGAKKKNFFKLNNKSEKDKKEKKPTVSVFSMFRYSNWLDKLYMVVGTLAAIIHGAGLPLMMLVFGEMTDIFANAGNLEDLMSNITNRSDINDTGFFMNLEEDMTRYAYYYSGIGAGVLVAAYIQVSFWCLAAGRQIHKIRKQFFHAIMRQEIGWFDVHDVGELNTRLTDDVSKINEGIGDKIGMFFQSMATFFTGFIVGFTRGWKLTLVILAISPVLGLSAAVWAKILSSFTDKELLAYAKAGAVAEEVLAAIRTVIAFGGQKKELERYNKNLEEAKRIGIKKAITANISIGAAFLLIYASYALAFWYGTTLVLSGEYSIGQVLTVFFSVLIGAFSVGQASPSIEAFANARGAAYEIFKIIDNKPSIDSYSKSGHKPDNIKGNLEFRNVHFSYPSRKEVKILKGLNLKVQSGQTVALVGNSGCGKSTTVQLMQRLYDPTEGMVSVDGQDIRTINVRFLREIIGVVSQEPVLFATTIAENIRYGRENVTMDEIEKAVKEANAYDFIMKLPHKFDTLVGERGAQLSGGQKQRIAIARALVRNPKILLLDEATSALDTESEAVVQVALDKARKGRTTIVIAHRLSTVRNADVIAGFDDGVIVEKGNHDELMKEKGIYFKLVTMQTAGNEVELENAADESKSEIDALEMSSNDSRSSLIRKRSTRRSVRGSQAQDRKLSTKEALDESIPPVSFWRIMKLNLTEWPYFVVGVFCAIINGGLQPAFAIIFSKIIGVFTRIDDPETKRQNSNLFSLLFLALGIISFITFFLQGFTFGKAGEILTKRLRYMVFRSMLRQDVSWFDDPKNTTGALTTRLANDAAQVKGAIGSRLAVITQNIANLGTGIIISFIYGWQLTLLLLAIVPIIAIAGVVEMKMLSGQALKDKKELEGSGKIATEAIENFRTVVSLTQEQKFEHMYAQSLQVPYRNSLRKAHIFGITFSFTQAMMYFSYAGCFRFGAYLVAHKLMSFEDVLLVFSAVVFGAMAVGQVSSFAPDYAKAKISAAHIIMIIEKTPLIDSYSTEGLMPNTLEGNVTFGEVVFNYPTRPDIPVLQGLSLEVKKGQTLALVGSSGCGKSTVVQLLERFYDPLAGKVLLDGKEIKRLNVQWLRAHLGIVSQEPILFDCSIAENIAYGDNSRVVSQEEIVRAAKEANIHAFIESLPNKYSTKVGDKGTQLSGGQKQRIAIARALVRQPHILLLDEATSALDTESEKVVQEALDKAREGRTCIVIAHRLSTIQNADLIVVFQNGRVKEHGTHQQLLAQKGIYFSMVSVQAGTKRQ

A word on the Papp A→B: it is how fast a substance crosses the layer from the apical side. Higher therefore signals fast passage. In general, efflux ratio refers to the permeability from basolateral to apical divided by that in the opposite direction, in the common usage. As a reminder, the Papp is a coefficient for how fast a substance crosses the barrier. For the compound `CC1(C)[C@@H](O[C@H]2O[C@H](C(=O)O)[C@@H](O)[C@H](O)[C@H]2O[C@@H]2O[C@H](C(=O)O)[C@@H](O)[C@H](O)[C@H]2O)CC[C@]2(C)[C@H]3C(=O)C=C4[C@@H]5C[C@@](C)(C(=O)O)CC[C@]5(C)CC[C@@]4(C)[C@]3(C)CC[C@@H]12` [Glycyrrhizic acid], in the series on Caco-2 cell monolayers, the “Increase of PAB in the mixture compared to PAB in the Gancao extract” value is reported as “over two times”. This compound yielded a Papp A→B at 4 h in series [1] of 0.36 ± 0.04 ×10⁻⁶ cm/s. In addition, in series [1] (Caco-2, pH 7.4, Decrease of efflux ratio in the mixture compared to the Gancao extract, mixture of Shaoyao-Gancao extract vs. Gancao extract, 22 μM), the efflux ratio at 4 h, 22 µM is over 1. For the same compound, in series [1] (setting [2]), the efflux ratio at 4 h is 2.31. Moreover, the apparent permeability coefficient (Papp) at 4 h in series [1] (setting [3]) is 1.17 ± 0.08 ×10⁻⁶ cm/s; in series [1] (setting [4]), 0.41 ± 0.05 ×10⁻⁶ cm/s; in series [1] (setting [5]), 0.83 ± 0.07 ×10⁻⁶ cm/s; in series [1] (setting [6]), 1.21 ± 0.06 ×10⁻⁶ cm/s; in series [1] (setting [7]), 0.89 ± 0.04 ×10⁻⁶ cm/s.
On to `O=C1C[C@@H](c2ccc(O[C@@H]3O[C@H](CO)[C@@H](O)[C@H](O)[C@H]3O)cc2)Oc2cc(O)ccc21` [Liquiritin], for which, on P-glycoprotein (P-gp), the “Decrease in the efflux ratio after addition of verapamil” value was 60.47%. This compound showed an apical-to-basolateral permeability (Papp A→B) at 4 h in series [1] of 0.73 ± 0.04 ×10⁻⁶ cm/s. The efflux ratio at 4 h in series [1] (setting [2]) came to 2.15. Besides, the Papp at 4 h in series [1] (setting [3]) turned out to be 1.31 ± 0.06 ×10⁻⁶ cm/s; in series [1] (setting [4]), 1.2 ± 0.06 ×10⁻⁶ cm/s; in series [1] (setting [5]), 1.57 ± 0.05 ×10⁻⁶ cm/s; in series [1] (setting [6]) it was 1.58 ± 0.04 ×10⁻⁶ cm/s; in series [1] (setting [7]) it was 1.59 ± 0.02 ×10⁻⁶ cm/s.
Regarding `C[C@@]12C[C@@]3(O)O[C@@H](O1)[C@]1(COC(=O)c4ccccc4)[C@H]3C[C@@]12O[C@@H]1O[C@H](CO)[C@@H](O)[C@H](O)[C@H]1O` [Paeoniflorin], on P-glycoprotein (P-gp), the “Decrease in the efflux ratio after addition of verapamil” value was 54.29%. The Papp A→B at 4 h in series [1] came to 0.61 ± 0.09 ×10⁻⁶ cm/s. Moreover, the efflux ratio at 4 h in series [1] (setting [2]) was 2.1. For the same compound, the Papp at 4 h in series [1] (setting [3]) turned out to be 1.96 ± 0.08 ×10⁻⁶ cm/s; in series [1] (setting [4]) it was 0.94 ± 0.11 ×10⁻⁶ cm/s; in series [1] (setting [5]), 1.28 ± 0.05 ×10⁻⁶ cm/s; in series [1] (setting [6]) it was 1.77 ± 0.07 ×10⁻⁶ cm/s; in series [1] (setting [7]) it was 1.3 ± 0.02 ×10⁻⁶ cm/s.
